Holding throughout (assay type): in vivo
Common to all, as to conditions: 250 g/ha, evaluated after 13 days, five-point scale

Assay [1] deals with AMAPA. As to the kind of experiment: Post-emergence herbicidal glasshouse test. The method, then:
[Worded in the source for another organism; this organism is reported under the same test.] (§1) Seeds of a variety of test species are sown in standard soil in pots Amaranthus retoflexus (AMARE), Echinochloa crus-galli (ECHCG), Setaria faberi (SETFA)). After cultivation for one day (pre-emergence) or after 8 days cultivation (post-emergence) under controlled conditions in a glasshouse (at 24/16° C., day/night; 14 hours light; 65% humidity), the plants are sprayed with an aqueous spray solution derived from the formulation of the technical active ingredient in acetone/water (50:50) solution containing 0.5% Tween 20 (polyoxyethelyene sorbitan monolaurate, CAS RN 9005-64-5). Compounds are applied at 250 g/ha unless otherwise stated. The test plants are then grown in a glasshouse under controlled conditions in a glasshouse (at 24/16° C., day/night; 14 hours light; 65% humidity) and watered twice daily. After 13 days for pre and post-emergence, the test is evaluated for the percentage damage caused to the plant. The biological activities are shown in the following table on a five-point scale (5=81-100%; 4=61-80%; 3=41-60%; 2=21-40%; 1=0-20%).

The test system of assay [2] is Amaranthus retoflexus (AMARE). Put plainly: Post-emergence herbicidal glasshouse test. The method, then: as §1
The test system of assay [3] is Echinochloa crus-galli (ECHCG). Put plainly: Post-emergence herbicidal glasshouse test. The method, then:
as §1

Assay [4] has as its system IPOHE. As to the kind of experiment: Post-emergence herbicidal glasshouse test. The method, then: as §1
The subject of assay [5] is AMAPA. As to the kind of experiment: Pre-emergence herbicidal glasshouse test. The method, then: [Worded in the source for another organism; this organism is reported under the same test.] as §1
The subject of assay [6] is Amaranthus retoflexus (AMARE). As to the kind of experiment: Pre-emergence herbicidal glasshouse test. The method, then:
as §1

In assay [7] the test system is Echinochloa crus-galli (ECHCG). As to the kind of experiment: Pre-emergence herbicidal glasshouse test. The method, then:
as §1

Assay [8] relates to IPOHE. As to the kind of experiment: Pre-emergence herbicidal glasshouse test. The method, then: as §1

The text below walks through data of patent US20250243189A1, “HERBICIDAL IMIDAZOLE-CONTAINING COMPOUNDS” (SYNGENTA CROP PROTECTION AG, priority 2022, published 2025).

Consider `FC(F)(F)c1cn(Cc2ncc(Cl)cn2)c(-c2csc(Cl)c2)n1` [Compound 1.021], for which the “percentage damage caused to the plant, AMAPA” value in assay [1] and in assay [5] was 5 (5=81-100%) each time. Besides, the “percentage damage caused to the plant, AMARE” value is 4 (4=61-80%) in assay [2] and 5 (5=81-100%) in assay [6]. For the same compound, the “percentage damage caused to the plant, ECHCG” value in assay [3] is 4 (4=61-80%); in assay [7], 5 (5=81-100%). For the same compound, the “percentage damage caused to the plant, IPOHE” value in assay [4] and in assay [8] was 4 (4=61-80%) throughout.
Turning to `N#Cc1ccc(-c2nc(C(F)(F)F)cn2Cc2ncc(Cl)cn2)s1` [Compound 1.027], the “percentage damage caused to the plant, AMAPA” value in assay [1] and in assay [5] was 5 (5=81-100%) in each case. The “percentage damage caused to the plant, AMARE” value in assay [2] and in assay [6] was 5 (5=81-100%) throughout. Besides, the “percentage damage caused to the plant, ECHCG” value in assay [3] and in assay [7] was 5 (5=81-100%) each time. The “percentage damage caused to the plant, IPOHE” value in assay [4] is listed as 4 (4=61-80%); in assay [8] it was 5 (5=81-100%).
Turning to `Fc1ccc(-c2nc(C(F)(F)F)cn2Cc2ncc(Cl)cn2)s1` [Compound 1.038], the “percentage damage caused to the plant, AMAPA” value in assay [1] is on record as 4 (4=61-80%); in assay [5], 5 (5=81-100%). Moreover, the “percentage damage caused to the plant, AMARE” value in assay [2] and in assay [6] was 5 (5=81-100%) in each case. Further, the “percentage damage caused to the plant, ECHCG” value in assay [3] and in assay [7] was 5 (5=81-100%) each time. For the same compound, the “percentage damage caused to the plant, IPOHE” value in assay [4] is recorded as 4 (4=61-80%); in assay [8], 5 (5=81-100%).
In the case of `Cc1ncsc1-c1nc(C(F)(F)F)cn1Cc1ncc(Cl)cn1` [Compound 1.042], the “percentage damage caused to the plant, AMAPA” value in assay [1] and in assay [5] was 5 (5=81-100%) each time. The “percentage damage caused to the plant, AMARE” value in assay [2] and in assay [6] was 5 (5=81-100%) each time. Also, the “percentage damage caused to the plant, ECHCG” value is given as 4 (4=61-80%) in assay [3] and 5 (5=81-100%) in assay [7]. Also, the entries for the “percentage damage caused to the plant, IPOHE” value in assay [4] and in assay [8] were 4 (4=61-80%) and 5 (5=81-100%), respectively.
For `Cn1cc(Cl)c(-c2nc(C(F)(F)F)cn2Cc2ncc(Cl)cn2)n1` [Compound 1.043], the “percentage damage caused to the plant, AMAPA” value in assay [1] and in assay [5] was 1 (1=0-20%) throughout. Further, the “percentage damage caused to the plant, AMARE” value in assay [2] and in assay [6] was 1 (1=0-20%) throughout. The “percentage damage caused to the plant, ECHCG” value in assay [3] and in assay [7] was 1 (1=0-20%) throughout. The “percentage damage caused to the plant, IPOHE” value in assay [4] and in assay [8] was 1 (1=0-20%) each time.
On to `FC(F)(F)c1cn(Cc2ncc(Cl)cn2)c(-c2sccc2Br)n1` [Compound 1.044], for which the “percentage damage caused to the plant, AMAPA” value in assay [1] is listed as 2 (2=21-40%); in assay [5], 5 (5=81-100%). In addition, the “percentage damage caused to the plant, AMARE” value in assay [2] is given as 2 (2=21-40%); in assay [6], 5 (5=81-100%). The “percentage damage caused to the plant, ECHCG” value in assay [3] and in assay [7] was 1 (1=0-20%) in each case. Further, the “percentage damage caused to the plant, IPOHE” value in assay [4] was 3 (3=41-60%); in assay [8], 1 (1=0-20%).
For `FC(F)(F)c1cn(Cc2ncc(Cl)cn2)c(-c2scnc2Cl)n1` [Compound 1.045], the “percentage damage caused to the plant, AMAPA” value in assay [1] was 4 (4=61-80%); in assay [5], 5 (5=81-100%). For the same compound, the “percentage damage caused to the plant, AMARE” value in assay [2] is on record as 4 (4=61-80%); in assay [6], 5 (5=81-100%). Moreover, the “percentage damage caused to the plant, ECHCG” value in assay [3] is 2 (2=21-40%); in assay [7], 1 (1=0-20%). Also, the “percentage damage caused to the plant, IPOHE” value in assay [4] is 4 (4=61-80%); in assay [8], 5 (5=81-100%).
Consider `FC(F)(F)c1cn(Cc2ncc(Cl)cn2)c(-c2sc(Cl)nc2Cl)n1` [Compound 1.046], for which the “percentage damage caused to the plant, AMAPA” value in assay [1] is on record as 2 (2=21-40%); in assay [5] it was 4 (4=61-80%). For the same compound, the “percentage damage caused to the plant, AMARE” value in assay [2] is given as 2 (2=21-40%); in assay [6] it was 1 (1=0-20%). Also, the “percentage damage caused to the plant, ECHCG” value in assay [3] and in assay [7] was 1 (1=0-20%) in each case. For the same compound, the “percentage damage caused to the plant, IPOHE” value in assay [4] and in assay [8] was 1 (1=0-20%) throughout.
In the case of `FC(F)(F)c1cn(Cc2ccc(Cl)cn2)c(-c2ccc(Cl)s2)n1` [Compound 1.047], the “percentage damage caused to the plant, AMAPA” value in assay [1] and in assay [5] was 5 (5=81-100%) in each case. The “percentage damage caused to the plant, AMARE” value in assay [2] and in assay [6] was 5 (5=81-100%) in each case. Further, the “percentage damage caused to the plant, ECHCG” value in assay [3] and in assay [7] was 4 (4=61-80%) in each case. The “percentage damage caused to the plant, IPOHE” value in assay [4] is 4 (4=61-80%); in assay [8] it was 2 (2=21-40%).
As to `N#Cc1ccc(Cn2cc(C(F)(F)F)nc2-c2ccc(Cl)s2)nc1` [Compound 1.049], the “percentage damage caused to the plant, AMAPA” value in assay [1] and in assay [5] was 5 (5=81-100%) in each case. Besides, the “percentage damage caused to the plant, AMARE” value in assay [2] and in assay [6] was 5 (5=81-100%) each time. Besides, the “percentage damage caused to the plant, ECHCG” value in assay [3] and in assay [7] was 4 (4=61-80%) in each case. In addition, the figures for the “percentage damage caused to the plant, IPOHE” value in assay [4] and in assay [8] were 4 (4=61-80%) and 5 (5=81-100%), respectively.
Consider `Fc1ccc(Cn2cc(C(F)(F)F)nc2-c2ccc(Cl)s2)nc1` [Compound 1.050], for which the “percentage damage caused to the plant, AMAPA” value in assay [1] is given as 4 (4=61-80%); in assay [5], 5 (5=81-100%). Besides, the figures for the “percentage damage caused to the plant, AMARE” value in assay [2] and in assay [6] were 4 (4=61-80%) and 5 (5=81-100%), respectively. Besides, the “percentage damage caused to the plant, ECHCG” value is recorded as 4 (4=61-80%) in assay [3] and 5 (5=81-100%) in assay [7]. In addition, the entries for the “percentage damage caused to the plant, IPOHE” value in assay [4] and in assay [8] were 4 (4=61-80%) and 5 (5=81-100%), respectively.
On to `Fc1cc(Cl)cnc1Cn1cc(C(F)(F)F)nc1-c1ccc(Cl)s1` [Compound 1.051], for which the “percentage damage caused to the plant, AMAPA” value in assay [1] and in assay [5] was 5 (5=81-100%) in each case. For the same compound, the “percentage damage caused to the plant, AMARE” value in assay [2] and in assay [6] was 5 (5=81-100%) throughout. Also, the “percentage damage caused to the plant, ECHCG” value in assay [3] is reported as 4 (4=61-80%); in assay [7] it was 5 (5=81-100%). Besides, the “percentage damage caused to the plant, IPOHE” value in assay [4] was 3 (3=41-60%); in assay [8], 4 (4=61-80%).
Turning to `FC(F)c1cn(Cc2ncc(Cl)cn2)c(-c2ccc(Cl)s2)n1` [Compound 1.058, 5-chloro-2-[[2-(5-chloro-2-thienyl)-4-(difluoromethyl)imidazol-1-yl]methyl]pyrimidine], the “percentage damage caused to the plant, AMAPA” value in assay [1] and in assay [5] was 5 (5=81-100%) in each case. In addition, the “percentage damage caused to the plant, AMARE” value in assay [2] and in assay [6] was 5 (5=81-100%) each time. The “percentage damage caused to the plant, ECHCG” value in assay [3] was 4 (4=61-80%); in assay [7] it was 5 (5=81-100%). Besides, the “percentage damage caused to the plant, IPOHE” value in assay [4] is reported as 4 (4=61-80%); in assay [8] it was 5 (5=81-100%).
As for `FC(F)c1cn(Cc2ncc(Cl)cn2)c(-c2cnc(Cl)s2)n1` [Compound 1.071, 2-chloro-5-[1-[(5-chloropyrimidin-2-yl)methyl]-4-(difluoromethyl)imidazol-2-yl]thiazole], the “percentage damage caused to the plant, AMAPA” value in assay [1] is recorded as 4 (4=61-80%); in assay [5], 5 (5=81-100%). Further, the “percentage damage caused to the plant, AMARE” value in assay [2] and in assay [6] was 5 (5=81-100%) throughout. Further, the “percentage damage caused to the plant, ECHCG” value in assay [3] and in assay [7] was 4 (4=61-80%) each time. In addition, the “percentage damage caused to the plant, IPOHE” value in assay [4] is 2 (2=21-40%); in assay [8], 5 (5=81-100%).
